Where a name gives a salt, the structure may show the parent alone. Read-outs that look alike come from different tables or passages of the source.
Experiments:
blood glucose = test: Hypoglycaemic activity: reduction in area under blood glucose curve after glucose load; type: in vivo, Female CFLP mice; conditions: Mus musculus
Procedure: Female CFLP mice, weighing approximately 25 g, were fasted for 24 hours prior to the study. The compounds under study were administered orally as an aqueous solution to each of 6 mice. 30 minutes later a blood sample (10 μl) was obtained from the tail for the analysis of blood glucose. Immediately after taking this blood sample, glucose (1 g/Kg body weight) was administered subcutaneously to each mouse. 6 mice were given water as a control. Blood samples were then obtained from each mouse at 30 minute intervals for 120 minutes.
Compounds that produced a significant (P<0.05) reduction of blood glucose, compared with control mice given water, at any time interval, were considered active. The area under the blood glucose curve over the 2 hour period after the administration of the glucose was calculated for each compound and compared with the value for control animals.

[1] = Effect on energy expenditure of mice; type: in vivo, Female CFLP mice; conditions: Mus musculus; for response vs control in vivo at 22.8 mg/kg: 22.8 mg/kg po
Procedure: Female CFLP mice, each weighing approximately 24 g were given food and water ad lib before and during the experiment. The compounds were dissolved in water by addition of one mole of hydrochloric acid per mole of compound and these solutions were administered orally to each of 12 mice. A further 12 mice were dosed orally with water. The mice were placed in boxes through which air was drawn and the oxygen content of the air leaving the boxes was measured. The energy expenditure of the mice was calculated for 21 hours after dosing from the volume of air leaving the boxes and its oxygen content, following the principles described by J. B. de V. Weir, J. Physiol. (London), 109, 1-9 (1949).

[2] = po, 2 h, read-out: % Reduction in area under Blood Glucose Curve
[3] = po, 3 h, read-out: Mean Energy Expenditure (0-3 h)
[4] = po, 21 h, read-out: Mean Energy Expenditure (0-21 h)
[5] = 12.5 μmol/Kg oral, 2 h after glucose 1 g/Kg s.c., vs control, read-out: % Reduction in area under Blood Glucose Curve
[6] = 2.5 μmol/Kg oral, 2 h after glucose 1 g/Kg s.c., vs control, read-out: % Reduction in area under Blood Glucose Curve
[7] = 25.1 mg/kg po, 0-3 h, read-out: Mean Energy Expenditure (0-3 h)

Compound `COC(CNC(C)Cc1ccc(SC(C)C)cc1)c1cccc(Cl)c1` (stereo not drawn) [Example 40, N-[2-(4-Isopropylthiophenyl)-1-methylethyl]-2-methoxy-2-(3-chlorophenyl)ethanamine hydrochloride] has an inhibition in vivo at 12.5 µmol/kg (blood glucose; [2]) of 31%, a response vs control in vivo at 20.7 mg/kg [1, 3] of 128% and a response vs control in vivo at 20.7 mg/kg [1, 4] of 111%.
Compound `CCOC(CNC(C)Cc1ccc(C(=O)NC)cc1)c1cccc(Cl)c1` (stereo not drawn) [Example 34, N-[2-(4-N'-Methylcarboxamidophenyl)-1-methylethyl]-2-ethoxy-2-(3-chlorophenyl)ethanamine hydrochloride] has an inhibition in vivo at 25 µmol/kg (blood glucose; 25 μmol/Kg oral, 2 h after glucose 1 g/Kg s.c., vs control, read-out: % Reduction in area under Blood Glucose Curve) of 34%, a response vs control in vivo at 20.6 mg/kg [1, 4] of 116% and a response vs control in vivo at 20.6 mg/kg ([1]; 20.6 mg/kg po, 0-3 h, read-out: Mean Energy Expenditure (0-3 h)) of 148%.
Compound `CNC(=O)COc1ccc(CC(C)NCC(OC)c2ccccc2F)cc1` (stereo not drawn) [Example 55, N-[2-(4-Methylaminocarbonylmethoxyphenyl)-1-methylethyl]-2-methoxy-2-(2-fluorophenyl)ethanamine hydrochloride] has an inhibition in vivo at 12.5 µmol/kg (blood glucose; [2]) of 42%, a response vs control in vivo at 20.6 mg/kg [1, 3] of 150% and a response vs control in vivo at 20.6 mg/kg [1, 4] of 121%.
For `CNC(=O)COc1ccc(CC(C)NCC(OC)c2cccc(Br)c2)cc1` (stereo not drawn) [Example 15, N-[2-(4-Methylaminocarbonylmethoxyphenyl)-1-methylethyl]-2-methoxy-2-(3-bromophenyl)ethanamine hydrochloride], the inhibition in vivo at 0.5 µmol/kg (blood glucose; [2]) was 41%, the response vs control in vivo at 23.6 mg/kg [1, 3] was 137% and the response vs control in vivo at 23.6 mg/kg [1, 4] was 125%.
In the case of `CNC(=O)c1ccc(CC(C)NCC(OC)c2cccc(Cl)c2)cc1` (stereo not drawn) [Example 30, N-[2-(4-N'-Methylcarboxamidophenyl)-1-methylethyl]-2-methoxy-2-(3-chlorophenyl)ethanamine hydrochloride], the inhibition in vivo at 12.5 µmol/kg (blood glucose; [5]) is reported as 26.5%, the response vs control in vivo at 19.9 mg/kg [1, 4] is reported as 115% and the response vs control in vivo at 19.9 mg/kg ([1]; 19.9 mg/kg po, 0-3 h, read-out: Mean Energy Expenditure (0-3 h)) is reported as 119%.
Work on `COC(CNC(C)Cc1ccc(OCCN)cc1)c1cccc(Cl)c1` (stereo not drawn) [Example 24, N-[2-(4-(2-Aminoethoxy)phenyl)-1-methylethyl]-2-methoxy-2-(3-chlorophenyl)ethanamine dihydrochloride hemihydrate] yielded an inhibition in vivo at 12.5 µmol/kg (blood glucose; [5]) of 51%, a response vs control in vivo at 22.3 mg/kg [1, 4] of 128% and a response vs control in vivo at 22.3 mg/kg ([1]; 22.3 mg/kg po, 0-3 h, read-out: Mean Energy Expenditure (0-3 h)) of 147%.
For `COC(CNC(C)Cc1ccc(OCCO)cc1)c1cccc(Cl)c1` (stereo not drawn) [Example 48, N-[2-{4-(2-Hydroxyethoxy)phenyl}-1-methylethyl]-2-methoxy-2-(3-chlorophenyl)ethanamine hydrobromide], the inhibition in vivo at 0.5 µmol/kg (blood glucose; [2]) was 31%, the response vs control in vivo at 22.2 mg/kg [1, 3] was 128% and the response vs control in vivo at 22.2 mg/kg [1, 4] was 131%.
For `CNCCOc1ccc(CC(C)NCC(OC)c2cccc(Cl)c2)cc1` (stereo not drawn) [Example 9, N-[2-(4-Methylaminoethoxy)phenyl)-1-methylethyl]-2-methoxy-2-(3-chlorophenyl)ethanamine dihydrochloride], the inhibition in vivo at 2.5 µmol/kg (blood glucose; [6]) was 31%, the response vs control in vivo at 22.4 mg/kg [1, 3] was 168% and the response vs control in vivo at 22.4 mg/kg ([1]; 22.4 mg/kg po, 0-21 h, read-out: Mean Energy Expenditure (0-21 h)) was 151%.
Compound `COC(=O)c1ccc(CC(C)NCC(OC)c2cccc(Cl)c2)cc1` (stereo not drawn) [Example 5, N-[2-(4-Carbomethoxyphenyl)-1-methylethyl]-2-methoxy-2-(3-chlorophenyl)ethanamine hydrochloride] has an inhibition in vivo at 12.5 µmol/kg (blood glucose; [2]) of 27%, a response vs control in vivo at 19.9 mg/kg [1, 3] of 128% and a response vs control in vivo at 19.9 mg/kg [1, 4] of 117%.
Compound `CCOC(CNC(C)Cc1ccc(OCC(=O)OC)cc1)c1cccc(Cl)c1` (stereo not drawn) [Example 3, N-[2-(4-Carbomethoxymethoxyphenyl)-1-methylethyl]-2-ethoxy-2-(3-chlorophenyl)ethanamine hydrochloride] has an inhibition in vivo at 12.5 µmol/kg (blood glucose; [2]) of 49%, a response vs control in vivo at 22.1 mg/kg [1, 3] of 135% and a response vs control in vivo at 22.1 mg/kg [1, 4] of 116%.
`CNC(=O)COc1ccc(CC(C)NCC(OC)c2cccc(C)c2)cc1` (stereo not drawn) [Example 56, N-[2-(4-Methylaminocarbonylmethoxyphenyl)-1-methylethyl]-2-methoxy-2-(3-methylphenyl)ethanamine hydrochloride] showed an inhibition in vivo at 12.5 µmol/kg (blood glucose; [2]) of 40%, a response vs control in vivo at 20.4 mg/kg [1, 3] of 148% and a response vs control in vivo at 20.4 mg/kg [1, 4] of 108%.
`CCCCCCOC(CNC(C)Cc1ccc(OCC(=O)OC)cc1)c1cccc(Cl)c1` (stereo not drawn) [Example 44, N-[2-(4-Carbomethoxymethoxyphenyl)-1-methylethyl]-2-^n hexyloxy-2-(3-chlorophenyl)ethanamine hydrochloride] gave an inhibition in vivo at 7.5 µmol/kg (blood glucose; 7.5 μmol/Kg oral, 2 h after glucose 1 g/Kg s.c., vs control) of 34%, a response vs control in vivo at 24.9 mg/kg [1, 3] of 145% and a response vs control in vivo at 24.9 mg/kg ([1]; 24.9 mg/kg po, 0-21 h, read-out: Mean Energy Expenditure (0-21 h)) of 101%.
`CNC(=O)COc1ccc(CC(C)NCC(OC)c2ccccc2)cc1` (stereo not drawn) [Example 11, N-[2-(4-Methylaminocarbonylmethoxyphenyl)-1-methylethyl]-2-methoxy-2-phenylethanamine hydrochloride] showed an inhibition in vivo at 1 µmol/kg (blood glucose; [2]) of 42%, a response vs control in vivo at 19.6 mg/kg [1, 3] of 139% and a response vs control in vivo at 19.6 mg/kg [1, 4] of 118%.
With `CCCOC(CNC(C)Cc1ccc(OCC(=O)NC)cc1)c1cccc(Cl)c1` (stereo not drawn) [Example 27, N-[2-(4-Methylaminocarbonylmethoxyphenyl)-1-methylethyl]-2-^n propoxy-2-(3-chlorophenyl)ethanamine dihydrochloride hemihydrate] the inhibition in vivo at 2.5 µmol/kg (blood glucose; [6]) was 52%, the response vs control in vivo at 25.1 mg/kg [1, 4] was 115% and the response vs control in vivo at 25.1 mg/kg [1, 7] was 143%.
For `CNC(=O)COc1ccc(CC(C)NCC(OC)c2cc3ccccc3o2)cc1` (stereo not drawn) [Example 37, N-[2-(4-Methylaminocarbonylmethoxyphenyl)-1-methylethyl]-2-methoxy-2-(2-benzofuranyl)ethanamine dihydrochloride], the inhibition in vivo at 1 µmol/kg (blood glucose; [2]) was 26%, the response vs control in vivo at 23.6 mg/kg [1, 3] was 134% and the response vs control in vivo at 23.6 mg/kg [1, 4] was 106%.
For `COC(CNC(C)Cc1ccc(OCC(=O)N(C)C)cc1)c1cccc(Cl)c1` (stereo not drawn) [Example 19, N-[2-(4-Dimethylaminocarbonylmethoxyphenyl)-1-methylethyl]-2-methoxy-2-(3-chlorophenyl)ethanamine hydrochloride], the inhibition in vivo at 1 µmol/kg (blood glucose; [2]) was 56%, the response vs control in vivo at 22.1 mg/kg [1, 3] was 143% and the response vs control in vivo at 22.1 mg/kg [1, 4] was 139%.
For `CCCOC(CNC(C)Cc1ccc(OCC(=O)OC)cc1)c1cccc(Cl)c1` (stereo not drawn) [Example 25, N-[2-(4-Carbomethoxymethoxyphenyl)-1-methylethyl]-2-^n-propoxy-2-(3-chlorophenyl)ethanamine hydrochloride], the inhibition in vivo at 12.5 µmol/kg (blood glucose; [5]) was 53.5%, the response vs control in vivo at 22.8 mg/kg ([1]; 0-3 h, read-out: Mean Energy Expenditure (0-3 h)) was 137% and the response vs control in vivo at 22.8 mg/kg ([1]; 0-21 h, read-out: Mean Energy Expenditure (0-21 h)) was 105%.
`CNC(=O)COc1ccc(CCNCC(OC)c2cccc(Cl)c2)cc1` (stereo not drawn) [Example 51, N-[2-(4-Methylaminocarbonylmethoxyphenyl)ethyl]-2-methoxy-2-(3-chlorophenyl)ethanamine hydrochloride] gave an inhibition in vivo at 12.5 µmol/kg (blood glucose; [5]) of 45%, a response vs control in vivo at 20.7 mg/kg [1, 4] of 108% and a response vs control in vivo at 20.7 mg/kg ([1]; 20.7 mg/kg po, 0-3 h, read-out: Mean Energy Expenditure (0-3 h)) of 128%.
`CNC(=O)COc1ccc(CC(C)NCC(OC(C)C)c2cccc(Cl)c2)cc1` (stereo not drawn) [Example 28, N-[2-(4-Methylaminocarbonylmethoxyphenyl)-1-methylethyl]-2-isopropoxy-2-(3-chlorophenyl)ethanamine dihydrochloride hemihydrate] showed an inhibition in vivo at 2.5 µmol/kg (blood glucose; [6]) of 55%, a response vs control in vivo at 25.1 mg/kg [1, 7] of 132% and a response vs control in vivo at 25.1 mg/kg ([1]; 25.1 mg/kg po, 0-21 h, read-out: Mean Energy Expenditure (0-21 h)) of 113%.
With `COC(CNC(C)Cc1ccc(CO)cc1)c1cccc(Cl)c1` (stereo not drawn) [Example 31, N-[2-(4-Hydroxymethylphenyl)-1-methylethyl]-2-methoxy-2-(3-chlorophenyl)ethanamine hydrochloride] the inhibition in vivo at 12.5 µmol/kg (blood glucose; [2]) was 29%, the response vs control in vivo at 18.5 mg/kg [1, 3] was 103% and the response vs control in vivo at 18.5 mg/kg [1, 4] was 126%.
Work on `CNCCOc1ccc(CC(C)NCC(OC)c2ccccc2)cc1` (stereo not drawn) [Example 13, N-[2-(4-(2-Methylaminoethoxy)phenyl)-1-methylethyl]-2-methoxy-2-phenylethanamine dihydrochloride] yielded an inhibition in vivo at 2.5 µmol/kg (blood glucose; [2]) of 21%, a response vs control in vivo at 20.8 mg/kg [1, 3] of 145% and a response vs control in vivo at 20.8 mg/kg [1, 4] of 118%.

— US4629737A, “Secondary amines and use in pharmaceutical compositions” (Beecham Group p.l.c., priority 1982, dated 1986)
